Test results as given in patent publication US8722674B2, “1,3,5-triazine-2,4,6-triamine compound or pharmaceutical acceptable salt thereof, and pharmaceutical composition comprising the same” (Hanall Biopharma Co., Ltd., priority 2007, dated 2014).

Legend:
C2C12 cells = test: Measurement of glucose absorption (3H-deoxy-glucose); assay type: cell-based; conditions: for activity at 200 µM / activity at 100 µM: Mus musculus, differentiated C2C12 muscle cells, with 1 μM insulin 24 h, higher is better, read-out: glucose absorption, % control
From the text: (§1) Metformin that is widely used in type 2 diabetic patients inhibits the formation of glucose, the synthesis of cholesterol and triglyceride in liver cells and promote the absorption of glucose from blood vessels in the muscle cells. […] In the case of the ability to form cholesterol, triglyceride and glucose, the lower the numerical value, the better the effect. Numerical values for a control group become reference values.
As a muscle cell model, C2C12 cells were induced to differentiate into muscle cells in 2% bovine fetal serum for 6 days. The C2C12 cells which differentiated into muscle cells were treated with each of the compounds in serum-free low glucose media, and then cultured with 1 μM of insulin for 24 hours. After cultivation, the cells were treated with 1 μCi 3H-deoxy-glucose and 10 μM deoxy-glucose at 37° C. for 15 minutes. After treatment, the media were removed, and the cells were washed twice with PBS. The washed cells were treated with 0.1 N NaOH and neutralized with 1N HCl. The amount of glucose absorbed into the cells was measured with a liquid scintillation counter. The effect of the compounds was determined by selecting a compound showing an absorption effect of at least 200%, dividing the absorption effect by the average percent of the control group, and then multiplying the divided value by […]. A higher measurement value means a stronger ability to reduce insulin resistance.

HepG2 cells [1] = test: Measurement of gluconeogenesis (14C-lactate); assay type: cell-based; conditions: Homo sapiens, 24 h treatment, lower is better, read-out: gluconeogenesis (glucose synthesis ability), % control
Description: as §1
As a hepatic cell model, HepG2 cells were cultured in 10% serum-containing high glucose media, and then treated with each of the compounds for 24 hours. Then, the cells were treated with 0.5 uCi 14C-lactate and 10 mM L-lactate, and cultured for 4 hours. After cultivation, the media of the cells were removed, and the cells were washed with PBS, treated with 0.1N NaOH and left to stand at room temperature for 1 hour. Then, the cells were neutralized with 1N HCl, and the amount of glucose formed in the cells was measured with a liquid scintillation counter. […] A lower measurement value means a stronger blood glucose lowering activity.

HepG2 cells [2] = test: Measurement of cholesterol synthesis ability (Amplex red fluorescence); assay type: cell-based; conditions: for activity at 100 µM: Homo sapiens, HepG2 cells, 24 h treatment, lower is better, read-out: cholesterol synthesis ability, % control
From the text: as §1
(§2) As a hepatic cell model, HepG2 cells were used to measure cholesterol synthesis inhibitory ability, which is the important function of AMPK. The hepatic cell model HepG2 cells were cultured in 1% serum-containing media for 24 hours, and then treated with each of the compounds for 24 hours. Then, the cells were disrupted with lysis buffer (0.1 M potassium phosphate, pH 7.4, 0.05 M NaCl, 5 mM cholic acid, 0.1% Triton X-100). To the disrupted cells, the same volume of a reaction solution (2 U/ml cholesterol oxidizing agent, 2 U/ml peroxidase, 0.2 U/ml cholesterol esterase, and 300 μM Amplex red as a fluorescent factor) was added and allowed to react at 37° C. for 30 minutes. After completion of the reaction, the cells were measured with a fluorometer at a wavelength of 560/590 nm (ex/em), thus quantifying the amount of […] formed in the cells. A lower measurement value means an increased lipid production inhibitory ability.

HepG2 cells [3] = test: Measurement of triglyceride (Amplex red fluorescence); assay type: cell-based; conditions: Homo sapiens, 100 uM, 24 h treatment, lower is better, read-out: triglyceride synthesis ability, % control
Description: as §1
as §2, with “model,” for “model, HepG2 cells were used to measure cholesterol synthesis inhibitory ability, which is the important function of AMPK. The hepatic cell model”, “(0.1M” for “(0.1 M”, “(0.76” for “(2”, “glycerol kinase, […] peroxidase, 22.2 U/ml glycerol” for “cholesterol”, “agent,” for “agent, 2 U/ml peroxidase, 0.2 U/ml cholesterol esterase,”

| SMILES | activity at 200 µM (C2C12 cells) [%] | activity at 200 µM (HepG2 cells [1]) [%] | activity at 100 µM (HepG2 cells [2]) [%] | melting point [°C] | activity at 100 µM (HepG2 cells [3]) [%] | activity at 100 µM (C2C12 cells) [%] | activity at 100 µM (HepG2 cells [1]) [%] | effect on cholesterol synthesis, times better than the control group (HepG2 cells [2]; by comparison of used amounts vs control group (metformin 2 mM)) | effect of reducing insulin resistance, times better than the control group (C2C12 cells; absorption effect divided by average percent of control group (metformin 2 mM), multiplied by 20) |
| --- | --- | --- | --- | --- | --- | --- | --- | --- | --- |
| CN(C)c1nc(N)nc(NCc2ccoc2)n1 [Example 12, N2-(furan-3-ylmethyl)-N4,N4-dimethyl-1,3,5-triazine-2,4,6-triamine] | 180 | 78.6 | 92.4 | 151.6 to 152 | 87.7 |  |  |  |  |
| Nc1nc(N)nc(NCCc2ccccc2)n1 [Example 13, N2-phenethyl-1,3,5-triazine-2,4,6-triamine] | 115 | 99.6 | 92.3 | 169.9 to 171.8 | 103 |  |  |  |  |
| Cc1ccc(CNc2nc(N)nc(N(C)C)n2)cc1 [Example 14, N2,N2-dimethyl-N4-(4-methylbenzyl)-1,3,5-triazine-2,4,6-triamine] |  |  | 87.8 | 139 to 143 | 92 | 113 | 75.4 |  |  |
| COc1ccc(Nc2nc(N)nc(N(C)C)n2)cc1 [Example 15, N2,N2-dimethyl-N4-(4-methoxyphenyl)-1,3,5-triazine-2,4,6-triamine] |  |  | 57.1 | 173 to 176 | 53.6 | 91.1 | 114 |  |  |
| COc1cc(Nc2nc(N)nc(N(C)C)n2)cc(OC)c1 [Example 16, N2-(3,5-dimethoxyphenyl)-N4,N4-dimethyl-1,3,5-triazine-2,4,6-triamine] |  |  | 66.9 | 148 to 150 | 79.5 | 63.2 | 87.6 |  |  |
| CN(C)c1nc(N)nc(Nc2ccc(Br)cc2)n1 [Example 18, N2-(4-bromophenyl)-N4,N4-dimethyl-1,3,5-triazine-2,4,6-triamine] |  |  | 66.4 | 105 to 108 | 44.6 | 91.5 | 67 |  |  |
| COc1ccc(OC)c(Nc2nc(N)nc(N(C)C)n2)c1 [Example 19, N2-(2,5-dimethoxyphenyl)-N4,N4-dimethyl-1,3,5-triazine-2,4,6-triamine] |  |  | 69.2 | 213 to 215 | 74.5 | 131 | 116 |  |  |
| CN(C)c1nc(N)nc(Nc2ccc(Cl)cc2)n1 [Example 20, N2-(4-chlorophenyl)-N4,N4-dimethyl-1,3,5-triazine-2,4,6-triamine] |  |  | 56.3 | 164 to 167 | 41.4 | 132 | 84.9 |  |  |
| CC(Nc1nc(N)nc(N(C)C)n1)c1cccc2ccccc12 (centres unmarked) [Example 21, N2,N2-dimethyl-N4-(1-(naphthalen-1-yl)ethyl)-1,3,5-triazine-2,4,6-triamine] |  |  | 56.6 | 73 to 76 | 71 | 140 | 42.1 |  |  |
| CN(C)c1nc(N)nc(Nc2ccc3c(c2)CCC3)n1 [Example 23, N2-(2,3-dihydro-1H-inden-5-yl)-N4,N4-dimethyl-1,3,5-triazine-2,4,6-triamine] |  |  | 63 | 245 to 255 | 37.2 | 1.91 | 10.7 |  |  |
| CN(C)c1nc(N)nc(Nc2cc(Cl)cc(Cl)c2)n1 [Example 24, N2-(3,5-dichlorophenyl)-N4,N4-dimethyl-1,3,5-triazine-2,4,6-triamine] |  |  | 55.8 | 240 to 264 | 41.7 | 136 | 49.9 |  |  |
| CN(C)c1nc(N)nc(Nc2ccc3c(c2)-c2ccccc2C3)n1 [Example 25, N2-(9H-fluoren-3-yl)-N4,N4-dimethyl-1,3,5-triazine-2,4,6-triamine] |  |  | 76.8 | 282 to 290 | 30.2 | 107 | 49.5 | at least 20 times |  |
| CCCc1ccccc1Nc1nc(N)nc(N(C)C)n1 [Example 26, N2,N2-dimethyl-N4-(2-propylphenyl)-1,3,5-triazine-2,4,6-triamine] |  |  | 62.9 | 130 to 145 | 38.6 | 170 | 24.7 |  |  |
| CCCc1ccc(Nc2nc(N)nc(N(C)C)n2)cc1 [Example 27, N2,N2-dimethyl-N4-(4-propylphenyl)-1,3,5-triazine-2,4,6-triamine] |  |  | 63.5 | 155 to 165 | 67.4 | 4.05 | 30.9 |  |  |
| CCCCCCNc1nc(N)nc(N(C)C)n1 [Example 29, N2-hexyl-N4,N4-dimethyl-1,3,5-triazine-2,4,6-triamine] |  |  | 63.5 | 142 to 149 | 41.2 | 94.5 | 16.3 |  |  |
| CN(C)c1nc(N)nc(Nc2ccc(F)cc2)n1 [Example 31, N2-(4-fluorophenyl)-N4,N4-dimethyl-1,3,5-triazine-2,4,6-triamine] |  |  | 67.2 | 182 to 199 | 69.8 | 131 | 80.7 |  |  |
| Cc1cccc(Nc2nc(N)nc(N(C)C)n2)c1 [Example 32, N2,N2-dimethyl-N4-m-tolyl-1,3,5-triazine-2,4,6-triamine] |  |  | 34.2 | 166 to 168 | 66.6 | 118 | 66.8 |  |  |
| Cc1ccccc1Nc1nc(N)nc(N(C)C)n1 [Example 33, N2,N2-dimethyl-N4-o-tolyl-1,3,5-triazine-2,4,6-triamine] |  |  | 65.8 | 122 to 143 | 91.9 | 148 | 95.6 |  |  |
| CN(C)c1nc(N)nc(N2CCCCCC2)n1 [Example 34, 6-(azepan-1-yl)-N2,N2-dimethyl-1,3,5-triazine-2,4-diamine] |  |  | 52.6 | 240 to 249 | 70.9 | 203 | 39.4 |  | about 12 times |
| CN(C)c1nc(N)nc(Nc2ccc(-c3ccccc3)cc2)n1 [Example 37, N2-(biphenyl-4-yl)-N4,N4-dimethyl-1,3,5-triazine-2,4,6-triamine] |  |  | 66.8 | 190 to 201 | 80.6 | 151 | 85.7 |  |  |
| CN(C)c1nc(N)nc(Nc2ccccc2-c2ccccc2)n1 [Example 38, N2-(biphenyl-2-yl)-N4,N4-dimethyl-1,3,5-triazine-2,4,6-triamine] |  |  | 55.1 | 196 to 216 | 63.3 | 92.1 | 13.8 |  |  |
